Measurements as given in PubChem BioAssay (NCI).
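GI50 marks 50% less growth. TGI is the concentration that stops growth completely.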

Experiments:
Assay in all cases: NCI tumour cell line growth inhibition, 384-well format
786-0 renal = system: 786-0 renal
A498 renal = system: A498 renal
A549 NSCLC = system: A549 NSCLC
ACHN renal = system: ACHN renal
BT-549 breast = system: BT-549 breast
CAKI-1 renal = system: CAKI-1 renal
CCRF-CEM leukemia = system: CCRF-CEM leukemia
COLO 205 colon = system: COLO 205 colon
DU-145 prostate = system: DU-145 prostate
HCC-2998 colon = system: HCC-2998 colon
HCT-116 colon = system: HCT-116 colon
HCT-15 colon = system: HCT-15 colon
HL-60(TB) leukemia = system: HL-60(TB) leukemia
HOP-62 NSCLC = system: HOP-62 NSCLC
HOP-92 NSCLC = system: HOP-92 NSCLC
HT29 colon = system: HT29 colon
IGROV1 ovarian = system: IGROV1 ovarian
K-562 leukemia = system: K-562 leukemia
KM12 colon = system: KM12 colon
LOX IMVI melanoma = system: LOX IMVI melanoma
M14 melanoma = system: M14 melanoma
MALME-3M melanoma = system: MALME-3M melanoma
MCF7 breast = system: MCF7 breast
MDA-MB-231 breast = system: MDA-MB-231 breast
MDA-MB-435 melanoma = system: MDA-MB-435 melanoma
MDA-MB-468 breast = system: MDA-MB-468 breast
MOLT-4 leukemia = system: MOLT-4 leukemia
NCI-H226 lung = system: NCI-H226 lung
NCI-H23 lung = system: NCI-H23 lung
NCI-H322M lung = system: NCI-H322M lung
NCI-H460 NSCLC = system: NCI-H460 NSCLC
NCI-H522 lung = system: NCI-H522 lung
NCI/ADR-RES ovarian = system: NCI/ADR-RES ovarian
OVCAR-3 ovarian = system: OVCAR-3 ovarian
OVCAR-4 ovarian = system: OVCAR-4 ovarian
OVCAR-5 ovarian = system: OVCAR-5 ovarian
OVCAR-8 ovarian = system: OVCAR-8 ovarian
PC-3 prostate = system: PC-3 prostate
RPMI-8226 leukemia = system: RPMI-8226 leukemia
RXF 393 renal = system: RXF 393 renal
SF-295 CNS = system: SF-295 CNS
SF-539 CNS = system: SF-539 CNS
SK-MEL-2 melanoma = system: SK-MEL-2 melanoma
SK-MEL-28 melanoma = system: SK-MEL-28 melanoma
SK-MEL-5 melanoma = system: SK-MEL-5 melanoma
SK-OV-3 ovarian = system: SK-OV-3 ovarian
SN12C renal = system: SN12C renal
SNB-19 CNS = system: SNB-19 CNS
SR leukemia = system: SR leukemia
SW-620 colon = system: SW-620 colon
T-47D breast = system: T-47D breast
TK-10 renal = system: TK-10 renal
U251 glioblastoma = system: U251 glioblastoma
UACC-257 melanoma = system: UACC-257 melanoma
UACC-62 melanoma = system: UACC-62 melanoma
UO-31 renal = system: UO-31 renal

Compound: C=CCN1CC(=O)N2[C@@H](Cc3ccc(O)cc3F)C(=O)N(Cc3cccc(N4CC(N5CCN(CC)CC5)C4)n3)C[C@@H]2N1C(=O)NCc1ccccc1
- GI50 ([…]-0 renal): 35.9 nM
- TGI (786-0 renal): 680 nM
- GI50 (A498 renal): 35.4 nM
- TGI (A498 renal): 232 nM
- GI50 (A549 NSCLC): 31.5 nM
- TGI (A549 NSCLC): 3130 nM
- GI50 (ACHN renal): 231 nM
- TGI (ACHN renal): 1990 nM
- GI50 (BT-549 breast): 27.6 nM
- TGI (BT-549 breast): 98.4 nM
- GI50 (CAKI-1 renal): 30 nM
- TGI (CAKI-1 renal): 105 nM
- GI50 (CCRF-CEM leukemia): 29.8 nM
- TGI (CCRF-CEM leukemia): 231 nM
- GI50 (COLO 205 colon): 19.8 nM
- TGI (COLO 205 colon): 80.3 nM
- GI50 (DU-145 prostate): 59.4 nM
- TGI (DU-145 prostate): 23000 nM
- GI50 (HCC-2998 colon): 41.3 nM
- TGI (HCC-2998 colon): 398 nM
- GI50 (HCT-116 colon): 23.9 nM
- TGI (HCT-116 colon): 296 nM
- GI50 (HCT-15 colon): 315 nM
- TGI (HCT-15 colon): 3760 nM
- GI50 (HL-60(TB) leukemia): 57.8 nM
- TGI (HL-60(TB) leukemia): 293 nM
- GI50 (HOP-62 NSCLC): 32.3 nM
- TGI (HOP-62 NSCLC): 190 nM
- GI50 (HOP-92 NSCLC): 13.9 nM
- TGI (HOP-92 NSCLC): 46.4 nM
- GI50 (HT29 colon): 52.1 nM
- TGI (HT29 colon): 12900 nM
- GI50 (IGROV1 ovarian): 23.1 nM
- TGI (IGROV1 ovarian): 59.9 nM
- GI50 (K-562 leukemia): 35.9 nM
- TGI (K-562 leukemia): 18100 nM
- GI50 (KM12 colon): 36.8 nM
- TGI (KM12 colon): 32300 nM
- GI50 (LOX IMVI melanoma): 33.7 nM
- TGI (LOX IMVI melanoma): 98.7 nM
- GI50 (M14 melanoma): 32.1 nM
- TGI (M14 melanoma): 196 nM
- GI50 (MALME-3M melanoma): 23 nM
- TGI (MALME-3M melanoma): 63.1 nM
- GI50 (MCF7 breast): 472 nM
- TGI (MCF7 breast): 46400 nM
- GI50 (MDA-MB-231 breast): 10.8 nM
- TGI (MDA-MB-231 breast): 34.9 nM
- GI50 (MDA-MB-435 melanoma): 60.8 nM
- TGI (MDA-MB-435 melanoma): 32400 nM
- GI50 (MDA-MB-468 breast): 28.5 nM
- TGI (MDA-MB-468 breast): 87.3 nM
- GI50 (MOLT-4 leukemia): 10.4 nM
- TGI (MOLT-4 leukemia): 22.6 nM
- GI50 (NCI-H226 lung): 28.4 nM
- TGI (NCI-H226 lung): 372 nM
- GI50 (NCI-H23 lung): 24 nM
- TGI (NCI-H23 lung): 91.2 nM
- GI50 (NCI-H322M lung): 54.6 nM
- TGI (NCI-H322M lung): 2210 nM
- GI50 (NCI-H460 NSCLC): 21.7 nM
- TGI (NCI-H460 NSCLC): 90.4 nM
- GI50 (NCI-H522 lung): 16.2 nM
- TGI (NCI-H522 lung): 82.7 nM
- GI50 (NCI/ADR-RES ovarian): 3130 nM
- TGI (NCI/ADR-RES ovarian): 23600 nM
- GI50 (OVCAR-3 ovarian): 24.4 nM
- TGI (OVCAR-3 ovarian): 84.6 nM
- GI50 (OVCAR-4 ovarian): 23.2 nM
- TGI (OVCAR-4 ovarian): 74.1 nM
- GI50 (OVCAR-5 ovarian): 20.4 nM
- TGI (OVCAR-5 ovarian): 66.1 nM
- GI50 (OVCAR-8 ovarian): 23.8 nM
- TGI (OVCAR-8 ovarian): 282 nM
- GI50 (PC-3 prostate): 27.8 nM
- TGI (PC-3 prostate): 91.1 nM
- GI50 (RPMI-8226 leukemia): 17.8 nM
- TGI (RPMI-8226 leukemia): 33.9 nM
- GI50 (RXF 393 renal): 62.5 nM
- TGI (RXF 393 renal): 593 nM
- GI50 (SF-295 CNS): 79.8 nM
- TGI (SF-295 CNS): 528 nM
- GI50 (SF-539 CNS): 21.5 nM
- TGI (SF-539 CNS): 71.9 nM
- GI50 (SK-MEL-2 melanoma): 20.6 nM
- TGI (SK-MEL-2 melanoma): 83.1 nM
- GI50 (SK-MEL-28 melanoma): 25.9 nM
- TGI (SK-MEL-28 melanoma): 77 nM
- GI50 (SK-MEL-5 melanoma): 24.3 nM
- TGI (SK-MEL-5 melanoma): 70.6 nM
- GI50 (SK-OV-3 ovarian): 25.5 nM
- TGI (SK-OV-3 ovarian): 68.7 nM
- GI50 (SN12C renal): 47.4 nM
- TGI (SN12C renal): 18600 nM
- GI50 (SNB-19 CNS): 25 nM
- TGI (SNB-19 CNS): 226 nM
- GI50 (SR leukemia): 26.2 nM
- TGI (SR leukemia): 58.4 nM
- GI50 (SW-620 colon): 84.7 nM
- TGI (SW-620 colon): > 100000 nM
- GI50 (T-47D breast): 27.2 nM
- TGI (T-47D breast): 193 nM
- GI50 (TK-10 renal): 52.6 nM
- TGI (TK-10 renal): 637 nM
- GI50 (U251 glioblastoma): 23.6 nM
- TGI (U251 glioblastoma): 88.8 nM
- GI50 (UACC-257 melanoma): 50.2 nM
- TGI (UACC-257 melanoma): 333 nM
- GI50 (UACC-62 melanoma): 21.4 nM
- TGI (UACC-62 melanoma): 67.5 nM
- GI50 (UO-31 renal): 408 nM
- TGI (UO-31 renal): 3690 nM
